We go through twelve molecules from publication PMC9570995, “Design, Synthesis, and Biological Evaluation of Novel Dihydropyridine and Pyridine Analogs as Potent Human Tissue Nonspecific Alkaline Phosphatase Inhibitors with Anticancer Activity: ROS and DNA Damage-Induced Apoptosis” (Molecules, 2022).

Like-named read-outs stand apart in the source and are kept apart here.

Assay [1] has as its system Cervical Cancer (HeLa) Cells. The assay can be described thus: MTT cell viability assay, HeLa. In kind it is cell-based. The following applies: for IC50: unit given, read-out: Cervical Cancer (HeLa) Cells IC50 Values ± SEM. From the text:
(§1) An MTT assay was used to determine the viability of the cells under examination in the desired medium. The mitochondrial dehydrogenase enzyme of the viable cells has a key role in the conversion of the yellow water-soluble substrate 3-(4,5-dimethylthiazol-2-y1)-2,5 diphenyl tetrazolium bromide (MTT) into a dark blue formazan product that is insoluble in water. The anticancer activity of the novel synthetic derivatives (4a–4k) was investigated through an MTT assay, with small modifications following the already published protocols against cancer cell lines (HeLa and MCF-7), using cisplatin as a reference drug. The cytotoxic effect of the tested compounds at 100 µM concentration was determined and represented as the percent growth inhibition compared with the untreated control cells. The first series comprised dihydropyridines analogous from 4a–4f with various substitution patterns on the phenyl ring. […] It is presumed that the 1-naphthyl containing compound 4c was locked in a configuration that is not favorable for an interaction with amino acid residues.
(§2) The anti-proliferative activity of the synthesized compounds was determined in MCF-7 and HeLa cells by an MTT cell viability assay, as described earlier. Briefly, we seeded 1 × 10^4 cells/well in a sterile 96-well culture microtiter plate and incubated them in a 5% CO2 incubator at 37 °C for 24 h. […] After 24 h, the cells were treated with 0.2 mg/mL of MTT reagent for 4 h. We added 10% acidified SDS (sodium dodecyl sulfate) solubilizing solution in propanol (1:1) to solubilize the formazan crystals. After 30 min at 37 °C, the plate was placed on a gyratory shaker to completely dissolve the formazan crystals. The plate was placed on a microplate reader to measure the optical density at 570 nm. The IC50 values were calculated from three independent experiments as previously reported.
On the technique in general: Tetrazolium dyes change colour on reduction, which living cells bring about.

In assay [2] the target is T1, human tissue nonspecific alkaline phosphatase (h-TNAP) (Homo sapiens, UniProt P05186).
T1 sequence (P05186 18-524): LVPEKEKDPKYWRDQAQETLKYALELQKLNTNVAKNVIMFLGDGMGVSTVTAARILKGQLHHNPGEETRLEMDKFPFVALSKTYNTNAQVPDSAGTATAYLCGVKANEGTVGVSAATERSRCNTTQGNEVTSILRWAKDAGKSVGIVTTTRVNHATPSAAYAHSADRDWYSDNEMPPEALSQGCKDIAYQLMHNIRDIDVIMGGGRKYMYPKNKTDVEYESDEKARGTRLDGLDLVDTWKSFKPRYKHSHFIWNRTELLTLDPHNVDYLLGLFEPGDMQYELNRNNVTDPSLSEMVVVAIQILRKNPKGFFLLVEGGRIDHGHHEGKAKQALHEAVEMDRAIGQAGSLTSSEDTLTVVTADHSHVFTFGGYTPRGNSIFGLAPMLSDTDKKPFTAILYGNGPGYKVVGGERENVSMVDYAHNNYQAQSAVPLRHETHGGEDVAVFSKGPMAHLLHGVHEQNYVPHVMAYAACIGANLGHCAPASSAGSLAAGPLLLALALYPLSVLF
The assay can be described thus: Alkaline phosphatase inhibition assay (p-NPP substrate). In kind it is biochemical. The following applies: for inhibition at 1000 µM: compounds tested at 1 mM. Here is the method: The newly synthesized compounds were tested against human tissue nonspecific alkaline phosphatase (h-TNAP). The compounds were initially tested against the h-TNAP enzymes at 1 mM concentration. The assay buffer (pH 9.5) constituted of 50% glycerol, followed by tris-hydrochloride (50.0 mM), MgCl2 (5.0 mM), and ZnCl2 (0.1 mM) in the solution. The enzyme substrate p-nitrophenyl phosphate (p-NPP) and all the required test compounds were diluted to the required concentration by a dilution buffer method. In a 96-well plate, the assay was started by adding 70 µL of assay buffer followed by 10.0 µL of the test compound (from 1 mM), 10.0 µL of the enzyme (0.5 µL/mL) and then subsequently incubating at 37 °C for 10 min. The reaction was initiated with the addition of 10.0 µL of substrate (5.0 mM p-NPP) into each well and incubated for an additional 30 min.
Percent inhibition was calculated by the formula:% Inhibition = [100 − (abs of test comp/abs of control) × 100]

The subject of assay [3] is Breast Cancer (MCF-7) Cells. Nature of the assay: MTT cell viability assay, MCF-7. The following applies: for inhibition at 100 µM / IC50: Homo sapiens; for inhibition at 100 µM: MCF7, 100 µM, 24 h; for IC50: MCF7, unit given, read-out: Breast Cancer (MCF-7) Cells IC50 Values ± SEM. In kind it is cell-based.
Description: as §1, §2

Where [4] appears, read: Table 2, read-out: Alkaline Phosphatase (h-TNAP) percent inhibition.
[5] abbreviates: percent inhibition of h-TNAP, Table 1 and text, read-out: Inhibitory Potential.
[6] abbreviates: Homo sapiens, HeLa, 100 µM, 24 h.
The mark [7] stands for this setting: Table 2, unit given in Table 1, read-out: Alkaline Phosphatase (h-TNAP) IC50.
[8] abbreviates: h-TNAP, assay buffer pH 9.5, Table 1 and text, read-out: IC50 + SEM.

For `N.N.[Cl][Pt][Cl]` [Cisplatin, reference compound], the “Cervical Cancer (HeLa) Cells % Inhibition (at 100 µM)” value in assay [1] (100 µM, 24 h) is given as 98.32%. For the same molecule, in assay [1], the IC50 (commonly the concentration needed to halve the response being measured) stood at 11.3 ± 0.78 µM.
With `CSc1ccc(C2C(C#N)=C(N)N(Cc3ccccc3)C(N)=C2C#N)cc1` [Compound 4a, 2,6-Diamino-1-benzyl-4-(4-(methylthio)phenyl)-1,4-dihydropyridine-3,5-dicarbonitrile], in assay [2], the “activity against h-TNAP in words” value is “least activity”. Further, the results for the inhibition at 1000 µM in assay [2] (setting [4]) and in assay [2] (setting [5]) were 21.1% and 20.9%, respectively. Further, the “activity against HeLa in words” value in assay [1] is “least potency”. Besides, the inhibition at 100 µM was determined as 7.71% in assay [1] (setting [6]) and 37.9% in assay [3]. In assay [3], the “activity against MCF-7 in words” value was “least potency”.
`CC(C)c1ccc(C2C(C#N)=C(N)N(Cc3ccccc3)C(N)=C2C#N)cc1` [Compound 4b, 2,6-Diamino-1-benzyl-4-(4-isopropylphenyl)-1,4-dihydropyridine-3,5-dicarbonitrile]: in assay [2], the “activity against h-TNAP in words” value is recorded as “least activity”. Also, the inhibition at 1000 µM in assay [2] (setting [4]) and in assay [2] (setting [5]) was 28.3% each time. In addition, the “activity against HeLa in words” value in assay [1] is given as “least potency”. The inhibition at 100 µM in assay [1] (setting [6]) was found to be 11%; in assay [3], 41.8%. In addition, the “activity against MCF-7 in words” value in assay [3] is reported as “least potency”.
`N#CC1=C(N)N(Cc2ccccc2)C(N)=C(C#N)C1c1cccc2ccccc12` [Compound 4c, 2,6-Diamino-1-benzyl-4-(naphthalen-1-yl)-1,4-dihydropyridine-3,5-dicarbonitrile]: the inhibition at 1000 µM in assay [2] (setting [4]) and in assay [2] (setting [5]) was 26.2% each time. Moreover, the “activity against HeLa in words” value in assay [1] is “inactive”. Also, the figures for the inhibition at 100 µM in assay [1] (setting [6]) and in assay [3] were 21.3% and 23.1%, respectively. The “activity against MCF-7 in words” value in assay [3] was “inactive”.
Turning to `COc1ccc(C2C(C#N)=C(N)N(Cc3ccccc3)C(N)=C2C#N)c(OC)c1OC` [Compound 4e, 2,6-Diamino-1-benzyl-4-(2,3,4-trimethoxyphenyl)-1,4-dihydropyridine-3,5-dicarbonitrile], the IC50 in assay [2] (setting [7]) came out at 8.8 ± 0.53 µM; in assay [2] (setting [8]), 8.8 ± 0.53 µM; in assay [1] (Homo sapiens, HeLa) it was 69.47 ± 0.07 µM. Also, the values for the inhibition at 100 µM in assay [1] (setting [6]) and in assay [3] were 60% and 5.73%, respectively.
On to `COc1c(O)cccc1C1C(C#N)=C(N)N(Cc2ccccc2)C(N)=C1C#N` [Compound 4f, 2,6-Diamino-1-benzyl-4-(3-hydroxy-2-methoxyphenyl)-1,4-dihydropyridine-3,5-dicarbonitrile], for which the IC50 in assay [2] (setting [7]) was determined as 2.25 ± 0.16 µM; in assay [2] (setting [8]), 2.25 ± 0.16 µM; in assay [1] (Homo sapiens, HeLa), 57 ± 7.1 µM; in assay [3], 77 ± 8.3 µM. In addition, the inhibition at 100 µM in assay [1] (setting [6]) amounted to 77.3%; in assay [3], 61.7%.
In the case of `CCOc1ccc(-c2c(C#N)c(N)nc(NCCc3ccc(S(N)(=O)=O)cc3)c2C#N)cc1` [Compound 4g, 4-(2-((6-Amino-3,5-dicyano-4-(4-ethoxyphenyl)pyridine-2yl)amino)ethyl)benzene sulfonamide], the IC50 was 0.49 ± 0.025 µM in assay [2] (setting [7]); 0.49 ± 0.025 µM in assay [2] (setting [8]); 63 ± 4.1 µM in assay [1] (Homo sapiens, HeLa); 98 ± 5.7 µM in assay [3]. Further, the inhibition at 100 µM in assay [1] (setting [6]) was determined as 67.1%; in assay [3], 53.3%.
In the case of `CSc1ccc(-c2c(C#N)c(N)nc(NCCc3ccc(S(N)(=O)=O)cc3)c2C#N)cc1` [Compound 4h, 4-(2-((6-Amino-3,5-dicyano-4-(4-(methylthio)phenyl)pyridin-2-yl)amino)ethyl)benzene sulfonamide], in assay [2], the “activity against h-TNAP in words” value is reported as “least inhibitory activity”. For the same molecule, the inhibition at 1000 µM in assay [2] (setting [4]) and in assay [2] (setting [5]) was 37.6% each time. The inhibition at 100 µM in assay [1] (setting [6]) stood at 38.4%; in assay [3], 57.2%. In addition, in assay [3], the concentration for half-maximal inhibition (IC50) worked out at 109.9 ± 1.07 µM.
Take `CC(C)c1ccc(-c2c(C#N)c(N)nc(NCCc3ccc(S(N)(=O)=O)cc3)c2C#N)cc1` [Compound 4i]: in assay [2], the “activity against h-TNAP in words” value is “least inhibitory activity”. The inhibition at 1000 µM in assay [2] (setting [4]) and in assay [2] (setting [5]) was 31.7% in each case. Further, the inhibition at 100 µM in assay [1] (setting [6]) stood at 39.3%; in assay [3] it was 34.6%.
As to `CCOc1ccc(-c2c(C#N)c(N)nc(NCCCn3ccnc3)c2C#N)cc1` [Compound 4j, 2-((3-(1H-Imidazol-1-yl)propyl)amino)-6-amino-4-(4-ethoxyphenyl)pyridine-3,5-dicarbonitrile], the IC50 in assay [2] (setting [7]) came out at 1.22 ± 0.12 µM; in assay [2] (setting [8]), 1.22 ± 0.12 µM; in assay [1] (Homo sapiens, HeLa), 57 ± 1.5 µM; in assay [3], 54 ± 1.7 µM. In addition, the inhibition at 100 µM worked out at 77.8% in assay [1] (setting [6]) and 72.4% in assay [3].
As for `CC(C)c1ccc(-c2c(C#N)c(N)nc(NCCCn3ccnc3)c2C#N)cc1` [Compound 4k, 2-((3-(1H-Imidazol-1-yl)propyl)amino)-6-amino-4-(4-(isopropyle)phenyl)pyridine-3,5-dicarbonitrile], the “activity against h-TNAP in words” value in assay [2] was “comparatively inactive”. Besides, the inhibition at 1000 µM in assay [2] (setting [4]) and in assay [2] (setting [5]) was 36.5% in each case. Also, the inhibition at 100 µM in assay [1] (setting [6]) amounted to 63.8%; in assay [3] it was 40.1%. Moreover, in assay [1] (Homo sapiens, HeLa), the IC50 turned out to be 66 ± 1.97 µM.
For `COc1cccc2c1C(=O)c1c(O)c3c(c(O)c1C2=O)C[C@@](O)(C(=O)CO)C[C@@H]3O[C@H]1C[C@H](N)[C@H](O)[C@H](C)O1` [Doxorubicin, reference compound], in assay [3], the inhibition at 100 µM came to 98.9% and the IC50 was 2.81 ± 0.39 µM.
